Measured values from the supplement of paper PMC8671470.

What was measured:
Details in all cases: 72 h
HEL [1] = test system: HEL
In short: (§1)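 Fifteen myeloid leukaemia cell lines were seeded in RPMI 1640 at densities titrated to the linear growth range and placed in 384-well plates with acoustically pre-printed compounds at five tenfold doses from 1 to 10,000 nM, in duplicate. After 72 h at 37 °C with 5% CO2, luminescent ATP viability was normalised to vehicle and to a positive control at 10 µM, and curves were fitted with a four-parameter log-logistic model. The IC50 was obtained from these fits.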

KCL-22 [2] = test system: KCL-22
In short: as §1

HL-60 [3] = test system: HL-60
In short: as §1

ML-2 [4] = test system: ML-2
In short: as §1

KG-1 [5] = test system: KG-1
In short: as §1

MOLM-13 [6] = test system: MOLM-13
In short: as §1

MV4-11 [7] = test system: MV4-11
In short: as §1

Mono-Mac-6 [8] = test system: Mono-Mac-6
In short: as §1

KU-812 [9] = test system: KU-812
In short: as §1

LAMA-84 [10] = test system: LAMA-84
In short: as §1

K-562 [11] = test system: K-562
In short: as §1

THP-1 [12] = test system: THP-1
In short: as §1

NOMO-1 [13] = test system: NOMO-1
In short: as §1

BV-173 [14] = test system: BV-173
In short: as §1

SHI-1 [15] = test system: SHI-1
In short: as §1

HEL [16] = test: cell viability (% survival relative to DMSO control, bortezomib = 0%); higher = less cytotoxic
In short: (§2)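 Fifteen myeloid leukaemia cell lines (10 AML, 5 CML) were seeded at a density titrated to the linear growth range into 384-well plates pre-printed with compounds at 1, 10, 100, 1000 or 10000 nM in duplicate. Plates were incubated for 72 h at 37 °C with 5% CO2. Viability was then read by CellTiter-Glo luminescence. Each value is percent survival averaged over the duplicates, with vehicle set to 100% and a 10 µM positive control to 0%.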

KCL-22 [17] = test: as above
In short: as §2

HL-60 [18] = test: as above
In short: as §2

ML-2 [19] = test: as above
In short: as §2

KG-1 [20] = test: as above
In short: as §2

MOLM-13 [21] = test: as above
In short: as §2

MV4-11 [22] = test: as above
In short: as §2

Mono-Mac-6 [23] = test: as above
In short: as §2

KU-812 [24] = test: as above
In short: as §2

LAMA-84 [25] = test: as above
In short: as §2

K-562 [26] = test: as above
In short: as §2

THP-1 [27] = test: as above
In short: as §2

NOMO-1 [28] = test: as above
In short: as §2

BV-173 [29] = test: as above
In short: as §2

SHI-1 [30] = test: as above
In short: as §2

CC(C)(C)c1ccc(S(=O)(=O)NCc2ccc(C(=O)Nc3cccnc3)cc2)cc1 [STF-31]
Details | IC50 (cell viability) [µM]
BV-173 [14] | 0.0383
HEL [1] | 0.0738
HL-60 [3] | 0.143
K-562 [11] | 0.242
KCL-22 [2] | 0.437
KG-1 [5] | 0.144
KU-812 [9] | 0.109
LAMA-84 [10] | 0.169
ML-2 [4] | 0.228
MOLM-13 [6] | 3.57
MV4-11 [7] | 0.0451
Mono-Mac-6 [8] | 0.548
NOMO-1 [13] | 0.074
SHI-1 [15] | > 10
THP-1 [12] | > 10

cell viability [%]
Details | 1 nM | 10 nM | 100 nM | 1000 nM | 10000 nM
BV-173 [29] | 96.3 | 111 | 3.51 | 0.776 | 0.807
HEL [16] | 107 | 119 | 35.3 | 3.71 | 2.64
HL-60 [18] | 102 | 169 | 65.7 | -0.0172 | 0.631
K-562 [26] | 109 | 103 | 82.2 | 11.9 | 3.63
KCL-22 [17] | 85 | 80 | 98.4 | 9.33 | 1.6
KG-1 [20] | 147 | 137 | 72.6 | 19.7 | 18.4
KU-812 [24] | 91.8 | 107 | 58.6 | 14.2 | 7.98
LAMA-84 [25] | 97.5 | 94.6 | 68.8 | 6.82 | 2.61
ML-2 [19] | 95.8 | 101 | 83.5 | 3.23 | 0.455
MOLM-13 [21] | 111 | 154 | 96.6 | 109 | 0.127
MV4-11 [22] | 98 | 139 | 3.11 | 0.253 | 0.177
Mono-Mac-6 [23] | 107 | 114 | 105 | 36.9 | 31
NOMO-1 [28] | 102 | 95.7 | 40.1 | 6.08 | 0.284
SHI-1 [30] | 89.7 | 118 | 108 | 101 | 57.4
THP-1 [27] | 101 | 95.9 | 101 | 103 | 110

O=C(O)CC[N+](=O)[O-] [3-nitropropionic acid]
Details | IC50 (cell viability) [µM]
BV-173 [14] | > 10
HEL [1] | > 10
HL-60 [3] | 4.69
K-562 [11] | 3.64
KCL-22 [2] | > 10
KG-1 [5] | > 10
KU-812 [9] | > 10
LAMA-84 [10] | > 10
ML-2 [4] | > 10
MOLM-13 [6] | 2.87
MV4-11 [7] | 3.17
Mono-Mac-6 [8] | > 10
NOMO-1 [13] | > 10
SHI-1 [15] | 2.94
THP-1 [12] | > 10

cell viability [%]
Details | 1 nM | 10 nM | 100 nM | 1000 nM | 10000 nM
BV-173 [29] | 93.7 | 93.5 | 106 | 114 | 93.7
HEL [16] | 92.8 | 116 | 117 | 98.8 | 104
HL-60 [18] | 52.3 | 157 | 104 | 108 | 14.7
K-562 [26] | 112 | 120 | 89.7 | 95 | 10.5
KCL-22 [17] | 73.9 | 101 | 98.3 | 123 | 81
KG-1 [20] | 99 | 91.2 | 97.3 | 97.3 | 104
KU-812 [24] | 95.5 | 103 | 99.8 | 99.2 | 88.1
LAMA-84 [25] | 104 | 103 | 98.6 | 97.5 | 103
ML-2 [19] | 104 | 107 | 107 | 102 | 87
MOLM-13 [21] | 68.7 | 122 | 110 | 94 | 0.718
MV4-11 [22] | 105 | 115 | 87.2 | 99.5 | 0.752
Mono-Mac-6 [23] | 102 | 93.6 | 101 | 97.4 | 104
NOMO-1 [28] | 94.8 | 93.2 | 101 | 104 | 93.4
SHI-1 [30] | 90.7 | 120 | 97.5 | 92.9 | 3.76
THP-1 [27] | 88.2 | 96.7 | 99.1 | 86.5 | 92.2

CN(CCOc1ccc(Cc2sc(O)nc2O)cc1)c1ccccn1 [Rosiglitazone]
Details | IC50 (cell viability) [µM]
BV-173 [14] | > 10
HEL [1] | > 10
HL-60 [3] | > 10
K-562 [11] | > 10
KCL-22 [2] | > 10
KG-1 [5] | > 10
KU-812 [9] | > 10
LAMA-84 [10] | > 10
ML-2 [4] | > 10
MOLM-13 [6] | > 10
MV4-11 [7] | > 10
Mono-Mac-6 [8] | 0.0852
NOMO-1 [13] | > 10
SHI-1 [15] | > 10
THP-1 [12] | > 10

cell viability [%]
Details | 1 nM | 10 nM | 100 nM | 1000 nM | 10000 nM
BV-173 [29] | 96.7 | 101 | 81 | 97.7 | 101
HEL [16] | 110 | 110 | 113 | 110 | 91.9
HL-60 [18] | 97.8 | 111 | 107 | 127 | 168
K-562 [26] | 96.6 | 109 | 98.5 | 98.7 | 85.4
KCL-22 [17] | 96.4 | 113 | 110 | 94.2 | 102
KG-1 [20] | 91.4 | 110 | 94.3 | 101 | 91.2
KU-812 [24] | 98.9 | 111 | 92.5 | 95.4 | 90.3
LAMA-84 [25] | 99.3 | 106 | 100 | 95.6 | 97.4
ML-2 [19] | 106 | 108 | 95.6 | 120 | 115
MOLM-13 [21] | 107 | 115 | 118 | 130 | 122
MV4-11 [22] | 107 | 105 | 105 | 95 | 93.5
Mono-Mac-6 [23] | 95.9 | 92.6 | 54.5 | 25.2 | 24.8
NOMO-1 [28] | 109 | 107 | 97.8 | 105 | 102
SHI-1 [30] | 102 | 123 | 111 | 116 | 103
THP-1 [27] | 101 | 101 | 88.6 | 90.6 | 93.5
